Reference: patent US11118065B2, “Fluorenylaminoketone photoinitiator, preparation method thereof, and UV photocurable composition containing same” (CHANGZHOU TRONLY ADVANCED ELECTRONIC MATERIALS CO., LTD., priority 2017, dated 2021)

Test: Test of solubility property
Settings: for HDDA (g/100 g): largest weight dissolved in 100 g of 1,6-hexanediol diacrylate (HDDA) at 20° C.; for Acetone (g/100 g): largest weight dissolved in 100 g of acetone at 20° C.

Row | Structure (SMILES) | HDDA (g/100 g) | Acetone (g/100 g) | solubility (in the UV curing ink formulation, about 10% of butanone solvent required to dissolve completely)
1 | CCCC1(CCC)c2cc(C(=O)C(CC)(Cc3ccccc3)N(C)C)ccc2-c2ccc(N3CCCCC3)cc21 (stereo not shown) [Compound 43] | >15 g/100 g | >30 g/100 g | –
2 | CCC(Cc1ccc(C)cc1)(C(=O)c1ccc(N2CCOCC2)cc1)N(C)C (stereo not shown) [Irgacure 379, 2-(4-methylbenzyl)-2-dimethylamino-1-(4-morpholinophenyl)butanone, reference compound] | 11 g/100 g | 24 g/100 g | –
3 | C=CCC1(CC=C)c2ccccc2-c2ccc(C(=O)C(CC)(Cc3ccccc3)N(C)C)cc21 (stereo not shown) [Compound 34] | >15 g/100 g | >30 g/100 g | –
4 | CCC(Cc1ccccc1)(C(=O)c1ccc2c(c1)C(C)(C)c1cc(N(CCO)CCO)ccc1-2)N(C)C (stereo not shown) [Compound 45] | >15 g/100 g | >30 g/100 g | –
5 | C=CCC(CC)(C(=O)c1ccc2c(c1)C(C)(C)c1cc(N3CCCCC3)ccc1-2)N(C)C (stereo not shown) [Compound 39, 2-allyl-2-dimethylamino-9,9-dimethyl-2-(7-piperidinylfluorenyl)butanone] | >15 g/100 g | >30 g/100 g | –
6 | CC(C)(C(=O)c1ccc2c(c1)Cc1cc(C(=O)C(C)(C)N3CCCCC3)ccc1-2)N1CCCCC1 [Compound 24] | >15 g/100 g | >30 g/100 g | –
7 | CCCCN(CCCC)c1ccc2c(c1)C(C)(C)c1cc(C(=O)C(CC)(Cc3ccccc3)N(C)C)ccc1-2 (stereo not shown) [Compound 42] | >15 g/100 g | >30 g/100 g | –
8 | CCC(Cc1ccccc1)(C(=O)c1ccc(N2CCOCC2)cc1)N(C)C (stereo not shown) [Irgacure 369, 2-benzyl-2-dimethylamino-1-(4-morpholinophenyl)butanone, reference compound] | 5 g/100 g | 17 g/100 g | relatively poor

The next lines start with the values.

Row | HDDA (g/100 g) | Acetone (g/100 g) | solubility (in the UV curing ink formulation, about 10% of butanone solvent required to dissolve completely) | Structure (SMILES)
9 | >15 g/100 g | >30 g/100 g | – | CCCCC1(CCCC)c2cc(C(=O)c3ccccc3)ccc2-c2ccc(C(=O)C(CC)(Cc3ccccc3)N(C)C)cc21 (stereo not shown) [Compound 41, 2-benzyl-2-dimethylamino-9,9-dibutyl-1-(7-benzoyl)butanone]
10 | >15 g/100 g | >30 g/100 g | – | CCCCC1(CCCC)c2ccccc2-c2ccc(C(=O)C(C)(C)N3CCOCC3)cc21 [Compound 5]
11 | >15 g/100 g | >30 g/100 g | – | CCCCC1(CCCC)c2ccccc2-c2ccc(C(=O)C(CC)(Cc3ccccc3)N(C)C)cc21 (stereo not shown) [Compound 40, 2-benzyl-2-dimethylamino-9,9-dibutylfluorene-1-butanone]
12 | >15 g/100 g | >30 g/100 g | – | C=CCC1(CC=C)c2cc(OC)ccc2-c2ccc(C(=O)C(C)(C)N3CCOCC3)cc21 [Compound 4]
13 | >15 g/100 g | >30 g/100 g | – | CCC(Cc1ccccc1)(C(=O)c1ccc2c(c1)C(C)(C)c1cc(N3CCOCC3)ccc1-2)N(C)C (stereo not shown) [Compound 38, 2-benzyl-2-dimethylamino-9,9-dimethyl-1-(7-morpholinofluorenyl)butanone]
14 | >15 g/100 g | >30 g/100 g | – | CCCCC1(CCCC)c2cc(C(=O)c3ccccc3)ccc2-c2ccc(C(=O)C(C)(C)N3CCOCC3)cc21 [Compound 9]
15 | >15 g/100 g | >30 g/100 g | – | CCCCC1(CCCC)c2cc(C(=O)C(CC)(Cc3ccccc3)N(C)C)ccc2-c2ccc(N3CCOCC3)cc21 (stereo not shown) [Compound 14]
